# Experimental data from PubChem BioAssay AID2060506 (Molecular Pharmacology Branch, DTP, NCI, 2025).
# Test system: 598228-144-R-J1-PDC complex spheroid viability
# Assay: Anticancer human tumor 598228-144-R-J1-PDC patient-derived serous endometrial adenocarcinoma cell line growth inhibition [GQUAD]
# Conditions: for IC50: curve of first compound; for viability, T/C: stronger effect = lower value
# How it was run: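 Tumor cells were grown as complex spheroids with HUVEC endothelial cells and mesenchymal stem cells as stroma. G-quadruplex stabilizers were combined with targeted agents over half-log dilutions from near the clinical Cmax, or from 10 microM.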
# 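Further: spheroids exposed to the agents for one week before reading.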
# 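Wherever viability, T/C is given: percent of vehicle DMSO control viability so 100% = untreated growth.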
smiles,measurement,setting,value
C=CC(=O)N1CCN(c2nc(=O)n(-c3c(C)ccnc3C(C)C)c3nc(-c4c(O)cccc4F)c(F)cc23)C(C)C1 (configuration not stated) + CN(C)c1ccc(Nc2c3ccc(NC(=O)CCN4CCCC4)cc3nc3cc(NC(=O)CCN4CCCC4)ccc23)cc1,IC50,second compound 0.0316 µM,> 10 µM
same,IC50,second compound 0.1 µM,> 10 µM
same,IC50,second compound 0.316 µM,> 10 µM
same,IC50,second compound 1 µM,> 10 µM
same,IC50,second compound 3.16 µM,> 10 µM
same,IC50,second compound 10 µM,> 10 µM
same,"viability, T/C","second compound 0.0316 µM, first compound 0.0316 µM",94.4%
same,"viability, T/C","second compound 0.0316 µM, first compound 0.1 µM",105%
same,"viability, T/C","second compound 0.0316 µM, first compound 0.316 µM",101%
same,"viability, T/C","second compound 0.0316 µM, first compound 1 µM",120%
same,"viability, T/C","second compound 0.0316 µM, first compound 3.16 µM",122%
same,"viability, T/C","second compound 0.0316 µM, first compound 10 µM",122%
same,"viability, T/C","second compound 0.1 µM, first compound 0.0316 µM",93.6%
same,"viability, T/C","second compound 0.1 µM, first compound 0.1 µM",103%
same,"viability, T/C","second compound 0.1 µM, first compound 0.316 µM",122%
same,"viability, T/C","second compound 0.1 µM, first compound 1 µM",122%
same,"viability, T/C","second compound 0.1 µM, first compound 3.16 µM",119%
same,"viability, T/C","second compound 0.1 µM, first compound 10 µM",109%
same,"viability, T/C","second compound 0.316 µM, first compound 0.0316 µM",97.8%
same,"viability, T/C","second compound 0.316 µM, first compound 0.1 µM",112%
same,"viability, T/C","second compound 0.316 µM, first compound 0.316 µM",105%
same,"viability, T/C","second compound 0.316 µM, first compound 1 µM",123%
same,"viability, T/C","second compound 0.316 µM, first compound 3.16 µM",140%
same,"viability, T/C","second compound 0.316 µM, first compound 10 µM",110%
same,"viability, T/C","second compound 1 µM, first compound 0.0316 µM",80.8%
same,"viability, T/C","second compound 1 µM, first compound 0.1 µM",105%
same,"viability, T/C","second compound 1 µM, first compound 0.316 µM",103%
same,"viability, T/C","second compound 1 µM, first compound 1 µM",121%
same,"viability, T/C","second compound 1 µM, first compound 3.16 µM",135%
same,"viability, T/C","second compound 1 µM, first compound 10 µM",93.8%
same,"viability, T/C","second compound 3.16 µM, first compound 0.0316 µM",93.5%
same,"viability, T/C","second compound 3.16 µM, first compound 0.1 µM",111%
same,"viability, T/C","second compound 3.16 µM, first compound 0.316 µM",114%
same,"viability, T/C","second compound 3.16 µM, first compound 1 µM",117%
same,"viability, T/C","second compound 3.16 µM, first compound 3.16 µM",132%
same,"viability, T/C","second compound 3.16 µM, first compound 10 µM",121%
same,"viability, T/C","second compound 10 µM, first compound 0.0316 µM",79.6%
same,"viability, T/C","second compound 10 µM, first compound 0.1 µM",85.5%
same,"viability, T/C","second compound 10 µM, first compound 0.316 µM",115%
same,"viability, T/C","second compound 10 µM, first compound 1 µM",115%
same,"viability, T/C","second compound 10 µM, first compound 3.16 µM",124%
same,"viability, T/C","second compound 10 µM, first compound 10 µM",73%
